Source: US6649797B2, “Compounds and methods of use to treat infectious diseases” (The Picower Institute for Medical Research, priority 1996, dated 2003)
Where two headings read alike, the source gives them in different places.

Experiments:
HIV-1 [1] = assay: HIV-1 production in cultured monocytes at fixed 100 nM; assay type: cell-based; settings: monocytes infected 10 days prior to assay (10 ng p24/10^6 cells), percentage of untreated control
Procedure: Alternatively, the compounds may all be compared for inhibition of HIV replication at a fixed concentration. Presented in Table II are compounds that were used at a concentration of 100 nM to inhibit the production of HIV-1 in cultured monocytes infected with HIV-1 10 days prior to assay (10 ng of p24/10^6 cells). The production of HIV-1 in each treated culture is reported as percentage of untreated control.

Plasmodium falciparum = assay: Antimalarial activity in vitro, [3H]-hypoxanthine incorporation; assay type: cell-based; settings: for IC50: Plasmodium falciparum
Source text: The antimalarial properties of the compounds of the invention can be analyzed by techniques, assays and experimental animal models well known in the art. For example, the inhibition of growth of Plasmodium falciparum in vitro by the compounds may be assessed by the hypoxanthine-incorporation method (Desjardins et al., 1979, Antimicrob. Ag. Chemother. 16:710-718). […] The in vivo efficacy of the compounds can also be tested in mouse models in which parasitemia is enumerated following administration of the compound (Ager, A. L. 1984, Rodent malaria models, pp 225-264. In Handbook of Experimental Pharmacology vol. 68, Antimalarial Drugs, Peters and Richards eds, Springer-Verlag, Berlin).
The antimalarial activity of the compounds was determined essentially as described in Desjardins et al. supra. Fifty μl of various concentrations of a compound of the invention, chloroquine, or pyrimethamine were added to the wells of microtiter plates, followed by 200 μl of ring-stage, synchronized, P. falciparum-infected erythrocytes (final hematocrit=1.5%, final parasitemia=1-5%). The plates were incubated for 24 hr in a candle jar kept at 37° C., and then 25 μl of [^3H]-hypoxanthine (Amersham, Arlington Heights, ILL.; 2.5 μl Ci/well) was added. The plates were then incubated for a further 24 hr, before harvesting onto Unifilter-96 GF/C filter-microplates (Packard; Meriden, Conn.). Twenty-five μl of Microscint scintillation fluid (Packard) was added to each well of the filter-microplate, which was subsequently counted in a Top-count microplate scintillation counter (Packard). The percent of [^3H]-hypoxanthine uptake relative to control infect-erythrocytes was used to determine the IC50 value for the compounds by non-linear regression for LD50 determination.

[2] = Pharmacokinetics in mice (plasma, HPLC); assay type: in vivo, mouse
Procedure: Standard addition curves for each test compound were constructed by adding increased amounts of drug to mouse or human A^+ plasma (Long Island Blood Services; Melville, N.Y). […] The column was washed with 1.0 ml of water and then eluted with 1.0 ml of 10 mM tetramethylammonium chloride/10 mM heptane sulfonate/4.2 mM H3PO4/95% CH3CN/5% H2O (Buffer C). The eluted sample was reduced to dryness in a rotary evaporator and resuspended in 1.0 ml Buffer A.
Two hundred μl of the resuspended sample was injected onto a Hewlett-Packard model 1090 high performance liquid chromatography system (HPLC)(Wilmington, Del.) equipped with a photodiode array ultraviolet/visible spectrophotometric detector, autosampler, and Chemstation operating software. The column used was a 250×4.6 mm Zorbax RX-C8 column (Mac-Mod Analyticals; Chadd's Ford, Pa.) kept at room temperature and run at 1.5 ml/min. The mobile phase used was Buffer A and 10 mM tetramethylammonium chloride/10 mM heptane sulfonate/4.2 mM H3PO4/75% CH3CN/25% H2O (Buffer B), with all runs initiated at 10% Buffer B. A linear 30 min gradient to 60% Buffer B was then performed, followed by a 4 min reverse gradient to initial conditions.
Female ND4 Swiss Webster mice (21-24 g) were obtained from Harlan Sprague Dawley (Indianapolis, Ind.) and randomly placed in groups of five in cages with free access to food and water. […] The other CNI compounds were administered intraperitoneally or by oral gavage as a solution in water titrated with sufficient HCl to dissolve the drug. At various time points, ranging from 5 min to 4 days, a single group of animals was euthanized by carbon dioxide inhalation and bled by cardiac puncture using heparin as an anticoagulant. The blood from the five mice in the group was pooled and centrifuged at 14000× g for 10 min. The volume of plasma was measured, and equal volume of Buffer A added, and the mixture extracted and analyzed as described above, except that the dried eluates were resuspended in 200 μl Buffer A and 100 μl was injected onto the high performance liquid chromatography (HPLC) system.
The area under the plasma concentration-time curve (AUC) was determined, and bioavailability was measured as AUCoral/AUCi.p. A and B represent the zero time intercept of the distribution and elimination phases respectively, and a and β the respective slopes of the phases multiplied by 2.303. The t/2α and t1/2β are calculated half-lives of the drug in each phase (0.693/α and 0.693/β respectively). The volume of distribution (VD) was calculated as dose/B, and the total clearance rate (Cltot) calculated as β*VD. Cmax and tmax are the maximal plasma concentration and time of this measurement, respectively.

[3] = Toxicity in mice, median lethal dose by intraperitoneal injection; assay type: in vivo, mouse; settings: for LD50: mouse, in vivo, ip, read-out: LD50 ± standard deviation
Procedure: The doses of compounds of the invention found to be lethal to 50% of the mice (LD50) were determined by intraperitoneal injection of groups of five animals with increasing doses of each compound. CNI-0294 was administered from 0, 2, 10, 20, 40, 80, 160, 320, 640, 1280 mg/kg in 0.5 ml of water/HCl; CNI-1594 at 0, 2.4, 5, 10, 20, 40, 80 mg/kg in 0.5 ml of water/HCl; CNI-1794 at 0, 20, 50, 80 mg/kg in 0.5 ml of water/HCl; and CNI-1894 at 0, 10, 20, 40, 80, 240, 480, 960 mg/kg in water/HCl. […] The percentage of animals in each group which died were utilized to calculate the LD50 by non-linear curve fitting with the Enzfit software (Elsevier Bioscience; Cambridge, UK) programmed with the Chou equation (Chou 1976, J Theor Biol 39:253-276)).

[4] = In vitro metabolism with mouse liver post-mitochondrial supernatant and NADPH; assay type: in vitro ADME
Procedure: Several female ND4 Swiss Webster mice were euthanized by carbon dioxide inhalation and the livers excised and rinsed with ice cold phosphate buffered saline (pH 7.4). The livers were minced, gently homogenized in 50 mM phosphate buffer (pH 7.4) with a Dounce homogenizer, and centrifuged at 9600× g for 20 min. The post-mitochondrial supernatant was kept, glycerol added to 20%, and frozen at −70° C in 1.0 ml aliquots until used. For each incubation, 1.0 ml of a 1.0 mg/ml drug solution was added to 3.0 ml of 50 mM phosphate buffer (pH 7.4), 1.0 ml of 2 mg/ml NADPH in 50 mM phosphate (pH 7.4), and 1.0 ml of the post-mitochondrial supernatant. Five hundred μl of each incubate was then immediately transferred to an ice-cold tube to provide the zero-time sample, and addition 500 μl aliquots removed to ice-cold tubes at 8, 15, 30, and 60 min. The samples were then extracted, and analyzed by HPLC as described in section 7.1. Control incubations were also performed where drug or post-10 mitochondrial supernatant was omitted. […] Peaks in the CNI compound incubations which increased over time, and were not present in control samples lacking the enzyme preparation were treated as putative metabolites.

HIV-1ADA = assay: Anti-HIV activity in primary human monocytes, day 9 (Table IX, FIG. 12C); assay type: cell-based; settings: Human immunodeficiency virus 1, Monocyte, 216 h; day 9 after infection; >10 μM = 50% inhibition not achieved at maximal concentration; read-out: IC50
Procedure: Monocytes infected with HIV-1ADA were cultured in the presence of CNI-H0294 and CNI-H3094 in various concentrations. Nine days after infection, RT activity in culture supernatants was quantified. The results are presented as percent of total RT activity in untreated cultures (control). Three independent samples were assayed for each drug concentration, and the standard deviation was less than 15%.
[…] A 50% inhibitory concentration (IC50) was determined at day 9 after infection.

HIV-1 [5] = assay: AZT and Compound No. 2 in combination, HIV-1 infected monocyte cultures, RT activity; assay type: cell-based; settings: for reverse transcriptase activity in supernatant: (−) No. 2
Procedure: Primary human monocytes were obtained from peripheral blood by Ficoll-Hypaque centrifugation and adherence to plastic as described previously. Gartner S. P., et al., 1986, Science 233:215. Briefly, after Ficoll-Hypaque (Pharmacia) separation, PBMCs were washed 4 times with DMEM (the last wash was done at 800 rpm to remove platelets) and resuspended in monocyte culture medium [DMEM supplemented with 1 mM glutamine, 10% heat-inactivated human serum, 1% penicillin+streptomycin mixture (Sigma)] at a density of 6×10^6 cells/ml. Cells were seeded in 24-well plates (1 ml per well) and incubated for 2 h at 37° C, 5% CO2. Following incubation, cells were washed 3 times with DMEM to remove non-adherent cells and incubation was continued in monocyte culture medium supplemented with 250 U/ml human M-CSF (Sigma). Cells were allowed to mature for 7 days prior to infection with the monocyte-tropic strain, HIV-1ADA. Nuovo, G. J., et al., 1992, Diagn. Mol. Pathol. 1:98. Two hours after infection, cells were washed with medium and cultured in RPMI supplemented with 10% human serum. In experiments where PCR analysis was performed, virus was pretreated with RNAse-free DNAse (Boehinger-Mannheim) for 2 h at room temperature and then filtered though a 0.2 μm pore nitrocellulose filter prior to infection.
For the reverse transcriptase (RT) assay, 10 μl of culture supernatant was added to 40 μl of reaction mixture (final composition was 50 mM Tris-HCl, pH 7.8; 20 MM KCl; 5 MM MgCl2; 1 mM DTT; 0.1% Triton X-100; 0.2 OD/ml polyA; 0.2 OD/ml oligo(dT)12-18; and 40 μCi/ml ^3H-dTTP (76 Ci/mmol, DuPont) and incubated 2 hr at 37° C. 5 μl of the reaction mixture was then spotted onto the DE 81 (Whatman) paper. Paper was air dried and washed 5 times with 5% Na2HPO4, followed by rinsing with distilled water. After air drying, paper was put on a Flexi Filter plate (Packard), covered with scintillation fluid and counted in a Top Count Microplate Counter (Packard). Results are expressed as counts per minute in 1 ml of supernatant (cpm/ml).
In view of these premises, the effects on HIV-1 replication in human monocyte cultures of the various concentrations of AZT, alone or in combination with 100 nM Compound No. 2, were tested using the protocols of Sections 6.2.1 and 6.2.2. Drugs were added to the monocyte cultures together with HIV-1 at about 10^5 TCID/ml. The concentration of drugs was maintained on refeeding. HIV-1 replication was assessed by assay of the supernatant for reverse transcriptase activity. The results are expressed as mean ± std. dev. (cpm×10^−3) in Table V.

[6] = female, ND4 Swiss Webster, mouse, plasma, ip, 50 mg/kg, vehicle water
[7] = mouse, i.p., 50 mg/kg, vehicle water

CC(=O)c1cccc(C(C)=O)c1N [2,6-diacetylaniline]
Viral Production (HIV-1 [1]): 28%

CC(=O)c1cc(C(C)=O)cc(N(C)C)c1 [N,N-dimethyl-3,5-diacetylaniline]
Viral Production (HIV-1 [1]): 25%

CCc1nc(N)nc(N)c1-c1ccc(Cl)cc1 [Pyrimethamine]
IC50 (Plasmodium falciparum; DD2, clone Dd2, ± standard deviation, read-out: IC50): 104000 ± 9790 nM
IC50 (Plasmodium falciparum; clone W2mef, ± standard deviation, read-out: IC50): 17800 ± 13500 nM

CC(=O)c1cc(N)cc(C(C)=O)c1 [CNI-1894, 3,5-diacetylaniline]
Viral Production (HIV-1 [1]): 20%
AUC [2, 6]: 20200 ng·h/mL
Cmax [2, 6]: 13400 ng/mL
Tmax ([2]; female, ND4 Swiss Webster, plasma, ip, mouse, i.p., 50 mg/kg, vehicle water, read-out: tmax (converted)): 5 min
maximal plasma level ([2]; mice, single i.p. injection (50 mg/kg; CNI-1594 20 mg/kg)): 13.43 µg/mL
A (zero time intercept of the distribution phase) [2, 7]: 14.93 µg/mL
B (zero time intercept of the elimination phase) [2, 7]: 0.15 µg/mL
Cltot [2, 7]: 3.30 mL/min
t1/2α [2, 7]: 34.8 min
t1/2β [2, 7]: 1386 min
α [2, 7]: 1.19 h⁻¹
β [2, 7]: 0.03 h⁻¹
visible signs of toxicity [3]: died 2-3 days post injection, and showed no sign of any immediate toxicity
LD50 [3]: 258.6 ± 1.37 mg/kg
metabolites produced [4]: one minor and one major metabolite
metabolic conversion (drug altered, as judged by peak area) ([4]; 60 min incubation): 17.28%
antimalarial activity (Plasmodium falciparum; clone Dd2, highest concentration tested 200 μM): inactive at the highest concentration tested
IC50 (HIV-1ADA): > 10000 nM

CCN(CC)CCCC(C)Nc1ccnc2cc(Cl)ccc12 (centres unmarked) [Chloroquine]
IC50 (Plasmodium falciparum; DD2, clone Dd2, Chloroquine column, unit inferred): 123 ± 7.26 nM
IC50 (Plasmodium falciparum; FCR3, clone FCR-3, Chloroquine column, unit inferred): 105 ± 9.98 nM
IC50 (Plasmodium falciparum; HB3, clone HB3, Chloroquine column, unit inferred): 6.73 ± 0.16 nM
IC50 (Plasmodium falciparum; clone D10, Chloroquine column, unit inferred): 27 ± 2.42 nM
IC50 (Plasmodium falciparum; clone W2mef, Chloroquine column, unit inferred): 144 ± 13.3 nM

CC(=O)c1cncc(C(C)=O)c1 [3,5-diacetylpyridine]
Viral Production (HIV-1 [1]): 58%

CC(=O)c1ccc(Nc2cc(C)nc(N)n2)cc1 [Compound No. 17, 2-amino-4-(4-acetylphenyl)amino-6-methylpyrimidine]
LD50 [3]: 48.93 ± 0.12 mg/kg

Cc1cn([C@H]2C[C@H](N=[N+]=[N-])[C@@H](CO)O2)c(=O)[nH]c1=O [AZT]
reverse transcriptase activity in supernatant (HIV-1 [5]; day-7, 10 pM AZT, mean ± std. dev.): 0.92 ± 0.21 cpm×10^−3
reverse transcriptase activity in supernatant (HIV-1 [5]; day-7, 100 pM AZT): 0.79 ± 0.14 cpm×10^−3
reverse transcriptase activity in supernatant (HIV-1 [5]; day-7, 1 nM AZT): 0.60 ± 0.28 cpm×10^−3
reverse transcriptase activity in supernatant (HIV-1 [5]; day-7, 10 nM AZT): 0.05 ± 0.02 cpm×10^−3
reduction in RT activity (HIV-1 [5]; day-11, 10 pM AZT alone): about 20%
reverse transcriptase activity in supernatant (HIV-1 [5]; day-11, 10 pM AZT): 1.63 ± 0.81 cpm×10^−3
reverse transcriptase activity in supernatant (HIV-1 [5]; day-11, 100 pM AZT): 1.34 ± 0.59 cpm×10^−3
reverse transcriptase activity in supernatant (HIV-1 [5]; day-11, 1 nM AZT): 1.07 ± 0.49 cpm×10^−3
reverse transcriptase activity in supernatant (HIV-1 [5]; day-11, 10 nM AZT): 0.08 ± 0.03 cpm×10^−3
